In the supplement of paper PMC13380429:
Counter-ions that a name gives are not always drawn.

What was measured:
Settings in all cases: 72 h
Caco-2 [1] = experiment: cell viability relative to DMSO; higher = less toxic
Calu-3 [2] = experiment: as above
HepG2 [3] = experiment: as above
U2OS [4] = experiment: as above
Vero E6 [5] = experiment: as above
Caco-2 [6] = experiment: relative viability EC50 (midpoint between 100% and the lowest measured viability); higher = less toxic
Calu-3 [7] = experiment: as above
HepG2 [8] = experiment: as above
U2OS [9] = experiment: as above
Vero E6 [10] = experiment: as above
Caco-2 [11] = experiment: drug sensitivity score (DSS) for viability; higher = more toxic; extreme values may be limits of the assay
Calu-3 [12] = experiment: as above
HepG2 [13] = experiment: as above
U2OS [14] = experiment: as above
Vero E6 [15] = experiment: as above

SMILES	cell viability (Caco-2 [1]; 1 nM)	cell viability (Caco-2 [1]; 10 nM)	cell viability (Caco-2 [1]; 100 nM)	cell viability (Caco-2 [1]; 1000 nM)	cell viability (Caco-2 [1]; 10000 nM)	cell viability (Calu-3 [2]; 1 nM)	cell viability (Calu-3 [2]; 10 nM)	cell viability (Calu-3 [2]; 100 nM)	cell viability (Calu-3 [2]; 1000 nM)	cell viability (Calu-3 [2]; 10000 nM)	cell viability (HepG2 [3]; 1 nM)	cell viability (HepG2 [3]; 10 nM)	cell viability (HepG2 [3]; 100 nM)	cell viability (HepG2 [3]; 1000 nM)	cell viability (HepG2 [3]; 10000 nM)	cell viability (U2OS [4]; 1 nM)	cell viability (U2OS [4]; 10 nM)	cell viability (U2OS [4]; 100 nM)	cell viability (U2OS [4]; 1000 nM)	cell viability (U2OS [4]; 10000 nM)	cell viability (Vero E6 [5]; 1 nM)	cell viability (Vero E6 [5]; 10 nM)	cell viability (Vero E6 [5]; 100 nM)	cell viability (Vero E6 [5]; 1000 nM)	cell viability (Vero E6 [5]; 10000 nM)	relative viability EC50 (Caco-2 [6])	relative viability EC50 (Calu-3 [7])	relative viability EC50 (HepG2 [8])	relative viability EC50 (U2OS [9])	relative viability EC50 (Vero E6 [10])	drug sensitivity score (Caco-2 [11])	drug sensitivity score (Calu-3 [12])	drug sensitivity score (HepG2 [13])	drug sensitivity score (U2OS [14])	drug sensitivity score (Vero E6 [15])
C[C@@H]1C(=O)O[C@H]2C[C@@]34[C@H]5C[C@@H](C(C)(C)C)[C@]36[C@@H](OC(=O)[C@@H]6O)O[C@@]4(C(=O)O5)[C@]21O [Ginkgolide A]	101%	97.3%	98.2%	93.4%	95.6%	104%	103%	96.4%	106%	105%	101%	88.5%	100%	92.6%	94.3%	105%	98.4%	102%	100%	104%	104%	95.1%	98.9%	97%	103%	> 10 µM	> 10 µM	> 10 µM	> 10 µM	> 10 µM	0	0	0	0	0
C[C@H](CCC(=O)O)[C@H]1CC[C@H]2[C@@H]3C[C@H](O)[C@@H]4C[C@H](O)CC[C@]4(C)[C@H]3CC[C@]12C [Hyodeoxycholic acid (HDCA)]	88.5%	100%	99.3%	101%	106%	108%	103%	87.8%	107%	101%	95.6%	102%	104%	93.9%	106%	95.8%	103%	105%	104%	104%	92.3%	95.4%	95.2%	94.3%	108%	> 10 µM	> 10 µM	> 10 µM	> 10 µM	> 10 µM	0	0	0	0	0
CNC(=O)c1ccc(-c2cnc3ncc(Cc4ccc5ncccc5c4)n3n2)cc1F [INC-280]	97.9%	90.7%	96.6%	104%	88.4%	101%	103%	99.9%	101%	110%	89.2%	100%	88.8%	111%	82.6%	107%	95.7%	99.6%	98.1%	102%	95.7%	98.4%	91.5%	96.1%	83%	> 10 µM	> 10 µM	> 10 µM	> 10 µM	> 10 µM	0	0	0.2	0	0.3
Cc1cc(C)cc(C(=O)N(C)[C@H](Cc2ccc(-c3ccccc3)cc2)C(=O)N[C@@H](Cc2c[nH]c3ccccc23)C(=O)O)c1 [IRL-2500]	94%	96.8%	96.7%	97.4%	101%	103%	90.3%	107%	92.8%	96.9%	92.5%	106%	99.4%	116%	118%	96.4%	95.5%	101%	98.5%	102%	94.3%	96.1%	90.1%	95.5%	111%	> 10 µM	> 10 µM	> 10 µM	> 10 µM	> 10 µM	0	0	0	0	0
O=C(NC1CC1)c1cc(-c2cccs2)on1 [ISX-9]	98.1%	98.3%	93.3%	101%	87.6%	93.6%	105%	104%	99.7%	84.3%	104%	95.8%	102%	103%	87.6%	97.7%	98.4%	98.4%	102%	85.5%	111%	96.5%	108%	99.4%	101%	> 10 µM	> 10 µM	> 10 µM	> 10 µM	> 10 µM	0.1	0.3	0	0.1	0
COc1ccc2cc(-c3cc(-c4cc(Cl)cc(Cl)c4)nn3[C@@H](C)c3ccc(C(=O)NCCC(=O)O)cc3)ccc2c1 [MK-0893]	87.9%	93.7%	95.8%	90.1%	87.6%	110%	94.7%	97.7%	96.2%	91.3%	88.5%	106%	86.8%	93.8%	90%	95.8%	98.2%	93.9%	96.8%	89.6%	97.7%	102%	98.8%	92.3%	84.5%	> 10 µM	> 10 µM	> 10 µM	> 10 µM	> 10 µM	0	0	0	0	0.6
Cc1cc(C(N)=O)ccc1-n1c(CCC(=O)O)ccc1-c1ccc(-n2ccnc2)cc1 [N6022]	91.8%	99.5%	100%	104%	100%	99.1%	98.5%	93.9%	95.5%	101%	104%	89.6%	111%	107%	104%	96.7%	103%	97.7%	101%	97.2%	99.3%	96.5%	94.8%	94%	106%	> 10 µM	> 10 µM	> 10 µM	> 10 µM	> 10 µM	0	0	0	0	0
CN(C(=O)Cc1ccccc1)[C@H](CN1CCCC1)c1ccccc1 [N-MPPP]	111%	94.8%	102%	97.4%	95.9%	103%	96.2%	91.6%	106%	93.4%	93.5%	93.6%	97.8%	100%	98%	95%	95.8%	101%	102%	99.1%	105%	104%	102%	106%	99.5%	> 10 µM	> 10 µM	> 10 µM	> 10 µM	> 10 µM	0	0	0	0	0
CC(=O)N[C@@H](C=O)[C@@H](O)[C@H](O)[C@H](O)CO [N-acetyl-D-glucosamine]	93.3%	97.6%	113%	102%	107%	103%	111%	101%	93%	95.9%	91%	85.7%	94%	94.7%	87.3%	102%	99.7%	102%	97.3%	102%	100%	110%	104%	106%	87.5%	> 10 µM	> 10 µM	> 10 µM	> 10 µM	> 10 µM	0	0	0	0	0
CNCCc1cnc[nH]1 [N-alpha-methylhistamine-dihydrochloride]	94.5%	104%	92.5%	98.2%	102%	101%	97.2%	91.5%	109%	94.5%	104%	95.9%	103%	87.7%	112%	97.4%	105%	101%	102%	98%	99.4%	91.6%	96.7%	91.5%	97.1%	> 10 µM	> 10 µM	> 10 µM	> 10 µM	> 10 µM	0	0	0	0	0
O=C1CC[C@@]2(O)[C@H]3Cc4ccc(O)c5c4[C@@]2(CCN3CC2CC2)[C@H]1O5 [NALTREXONE HYDROCHLORIDE]	107%	99%	95.3%	99.1%	90%	97.3%	100%	101%	99.2%	99%	93.8%	110%	102%	95.1%	92.1%	102%	97.2%	99.8%	100%	101%	98.1%	106%	100%	103%	103%	> 10 µM	> 10 µM	> 10 µM	> 10 µM	> 10 µM	0	0	0	0	0
N=C(NCCC[C@H](N)C(=O)O)N[N+](=O)[O-] [NG-nitro-arginine]	92.7%	88.8%	106%	84.2%	89.4%	93.5%	106%	91.7%	93.7%	94.6%	96.7%	101%	95.2%	101%	95.2%	104%	95.6%	101%	93.2%	97.9%	104%	101%	103%	101%	92.8%	> 10 µM	> 10 µM	> 10 µM	> 10 µM	> 10 µM	0	0	0	0	0
Nc1nc(OCC2CCCCC2)c2nc[nH]c2n1 [NU-2058]	98.4%	94.6%	96.2%	96.2%	90.3%	92.4%	106%	97.2%	109%	105%	120%	106%	98.3%	104%	86.8%	96.2%	103%	94.6%	95.6%	96%	103%	97.6%	98.2%	102%	99.7%	> 10 µM	> 10 µM	> 10 µM	> 10 µM	> 10 µM	0	0	0.1	0	0
